# Results as given in patent US20120009601A1, “METHODS AND COMPOSITIONS FOR REPROGRAMMING CELLS” (THE GENERAL HOSPITAL CORPORATION, priority 2010, published 2012).
# “Also recorded” adds a separate entry of the source.
# Columns and labels:
# [1] = test system: induced hepatocyte-like cells (iHep); assay: Generation of human iPS cells (iPS-hHepC) from induced hepatocyte-like cells (iHep); type: cell-based; details: 96 hr
# Procedure: Human induced pluripotent stem (iPS) cells were generated from the hepatocyte-like cells that had been generated from human hepatoma cells, using 5′-aza-2′-deoxycytidine (5-AZAC) plus trichostatin A (TSA) without Oct3/4 and c-Myc. The iHep were maintained using a medium for Primate ES cell culture supplemented with 40 ng/ml of hepatocytes growth factor and 20 ng/ml of epidermal growth factor. Furthermore, 500 nM 5′-aza-2′ deoxycytidine (5-AZAC), 150 nM trichostatin A (TSA), 1 μM EMD 616452 as an inhibitor for Tgf beta receptor I kinase/activin-like kinase 5 (Alk5) and 0.5 mM valproic acid (VPA) were administered in the Primate ES cell medium for 96 hr. After 14 days, human iPS cells (iPS-hHepC) were established. Oct3/4 was reactivated by 5-AZAC+TSA. Furthermore, Sox2 and Klf4 were reactivated by EMD 616452 and VPA, respectively.
# [2] = test system: human iPS cells which carry mutant p53; assay: PRIMA-1 treatment of human iPS cells carrying mutant p53 (p21 expression, p53-dependent apoptosis); type: cell-based; details: PRIMA-1 20 μM
# Procedure: Next, human iPS cells that carry mutant p53 were selected and treated with PRIMA-1 (20 μM).
# [3] = test system: human iPS cells that carry mutant p53; assay: Evaluation of cancerous risk: microvessel density (MVD) within teratomas from human iPS cell lines in mice; type: in vivo; details: cells treated with PRIMA-1 20 μM; teratomas in immunodeficient mice, anti-CD31 immunofluorescence
# Source text: The various human iPS cell lines (No. 1-No. 4) were inoculated intramuscularly into immunodeficient mice (Rag2^−/− Il2rg^−/−). Then, microvessel density (MVD) was compared within teratomas in mice among each group. Furthermore, for angiogenesis in teratomas from each human iPS cell lines, microvessel density (MVD) per high-powered field (h.p.f.) of teratomas was quantified by human-specific anti-CD31 immunofluorescence. n=3-6; All values were mean±s.e.m.
# By using microvessel density analysis (MVD) within SCID mice that were transplanted with ChiPS cell lines, risk evaluation of malignant transformations were performed for human iPS cell lines established by various methods (3) (4) (5) (6), including the results described herein (FIG. 9). […] Then, p53-175N, p53-175S and p53-175D were identified as p53-mutational spots in human iPS cells which carry mutant p53, with codon 175 in human p53 being known as one mutational spot in human cancer (7).
# [4] = test system: human iPS cells having wild-types p53; assay: PRIMA-1 treatment of human iPS cells carrying wild-type p53 (p53-dependent apoptosis); type: cell-based; details: PRIMA-1 20 μM; human iPS cells with wild-type p53
compound,measurement,setting,value
Cc1cccc(-c2[nH]ncc2-c2ccc3ncccc3n2)n1 [EMD 616452],Sox2 reactivation,"[1]; 1 μM EMD 616452, Primate ES cell medium",reactivated
"O=C1C2CCN(CC2)C1(CO)CO [PRIMA-1, 2,2-Bis(hydroxymethyl)-1-azabicyclo[2.2.2]octan-3-one]",induction of p53-dependent apoptosis,[2]; human iPS cells that have mutant p53,induction of p53-dependent apoptosis
same,expression of p53 target genes p21,[2]; human iPS cells which carry mutant p53,induced
same,MVD in human iPS cells carrying mutant p53,[3],equivalent to that of human iPS cell lines established by small molecules
same,induction of p53-dependent apoptosis,[4],not observed; also recorded: not found
"CCCC(CCC)C(=O)O [VPA, valproic acid]",Klf4 reactivation,"[1]; 0.5 mM VPA, Primate ES cell medium",reactivated
